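Step 1: Grow cells in 96-well plates. Step 2: Expose to compound for 48 hours at 5 concentrations. Step 3: Interpolate endpoints linearly; if unreached, use highest concentration. Definition used: TGI = concentration required for complete inhibition of growth.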
Experiments:
Assay in all cases: NCI anticancer screen, dose series, 48 h
SK-OV-3 ovarian = test system: SK-OV-3 ovarian
PC-3 prostate = test system: PC-3 prostate
ACHN renal = test system: ACHN renal
SN12C renal = test system: SN12C renal
MOLT-4 leukemia = test system: MOLT-4 leukemia
NCI-H460 lung = test system: NCI-H460 lung
A549 NSCLC = test system: A549 NSCLC
NCI-H522 lung = test system: NCI-H522 lung
SW-620 colon = test system: SW-620 colon
UO-31 renal = test system: UO-31 renal
HOP-92 NSCLC = test system: HOP-92 NSCLC
DU-145 prostate = test system: DU-145 prostate
SR leukemia = test system: SR leukemia
HOP-62 NSCLC = test system: HOP-62 NSCLC
RPMI-8226 leukemia = test system: RPMI-8226 leukemia
SK-MEL-28 melanoma = test system: SK-MEL-28 melanoma
HL-60(TB) leukemia = test system: HL-60(TB) leukemia
SNB-75 CNS = test system: SNB-75 CNS

SMILES	TGI (SK-OV-3 ovarian) [µM]	TGI (PC-3 prostate) [µM]	TGI (ACHN renal) [µM]	TGI (SN12C renal) [µM]	TGI (MOLT-4 leukemia) [µM]	TGI (NCI-H460 lung) [µM]	TGI (A549 NSCLC) [µM]	TGI (NCI-H522 lung) [µM]	TGI (SW-620 colon) [µM]	TGI (UO-31 renal) [µM]	TGI (HOP-92 NSCLC) [µM]	TGI (DU-145 prostate) [µM]	TGI (SR leukemia) [µM]	TGI (HOP-62 NSCLC) [µM]	TGI (RPMI-8226 leukemia) [µM]	TGI (SK-MEL-28 melanoma) [µM]	TGI (HL-60(TB) leukemia) [µM]	TGI (SNB-75 CNS) [µM]
CN=CN(C)c1c2ccccc2nc2ccccc12	> 100	> 100	> 100	> 100	> 100	> 100	> 100	> 100	> 100	28.1	> 100	> 100	> 100	> 100	> 100	> 100	> 100	> 100
C=C[C@H]1CC[C@H]2[C@@H]3CC=C4C[C@@H](OC5OCC(O)C(O)C5O)CC[C@]4(C)[C@H]3CC[C@]12C (some centres undefined)	28.5	37.7	10.8	33.2	> 100	28.4	27.5	25.9	40.2	30	16.8	> 100	33.7	> 100	> 100	–	> 100	–
CCOP(=O)(OCC)C(Nc1cccc([N+](=O)[O-])c1)c1ccccc1 (centres undefined)	> 100	> 100	> 100	> 100	> 100	> 100	> 100	> 100	–	> 100	> 100	> 100	> 100	> 100	> 100	> 100	> 100	> 100
COc1cc(NCc2ccc3nc(-c4ccccc4)c(N)nc3c2)cc(OC)c1OC	> 100	93.6	> 100	> 100	58.6	> 100	83.8	62.3	> 100	> 100	78.1	99.6	> 100	> 100	–	69	49.7	73.5
CC(=O)O[C@@H]1[C@H]2[C@@H](OC(=O)c3ccccc3)[C@@H](C)C[C@]2(O)[C@H](OC(C)=O)[C@@]2(C)[C@@H]3CC(C)(C)C(=O)[C@]3(OC(C)=O)C[C@@]12C	> 25	> 25	> 25	> 25	> 25	> 25	–	> 25	> 25	> 25	> 25	> 25	> 25	> 25	–	–	> 25	> 25
CCOP1(=O)C=C(Sc2ccc([N+](=O)[O-])cc2[N+](=O)[O-])C(C)(C)O1 (centres undefined)	66.2	> 50.1	28	41	> 100	49.2	44.3	9.36	> 52.2	28.3	25.3	26.4	7.17	56.2	39.2	32	77.3	50.3
O=C(N/N=C/c1ccc([N+](=O)[O-])cc1)c1cccc2nc3ccccc3nc12	> 100	> 100	> 73.8	> 100	> 100	> 64.4	> 100	> 100	> 100	> 100	> 87.3	> 100	> 64.7	22.7	> 100	> 100	> 100	> 100
Cc1nc(-n2[nH]c(C)c(CCO)c2=O)[nH]c(=O)c1CCO	> 100	> 100	> 100	> 100	> 100	> 100	> 100	> 100	> 100	> 100	> 100	> 100	> 100	> 100	> 100	> 100	> 100	> 100
COc1ccc(C(=O)c2sc(Nc3ccccc3)nc2N)cc1	> 100	> 100	> 100	> 100	> 100	> 100	> 100	> 100	> 100	> 100	> 100	> 100	> 100	> 80.2	> 100	> 100	–	–
N#CCCSC1SC(=C2SC3=C(SCCS3)S2)SC1SCCC#N (centres undefined)	–	> 100	> 100	> 100	> 100	> 100	> 100	> 100	> 100	> 100	> 100	> 100	> 100	> 100	–	> 100	> 100	–
CCOC(=O)c1sc2nc(SC)nc3c2c1NCN3c1ccc2c(c1)OCCCO2	75.7	> 100	> 100	> 100	> 100	> 100	> 100	> 100	> 100	> 100	> 100	> 100	> 100	> 100	> 100	> 100	> 100	–
COc1ccc2oc(=O)cc(C)c2c1	–	> 100	> 100	> 100	> 100	> 100	> 100	> 100	> 100	> 100	> 100	> 100	> 100	> 100	> 100	> 100	> 100	> 100
c1ccc(-c2cs[s+]c2)cc1	> 100	> 100	> 100	> 100	85.6	> 100	> 100	> 100	> 100	> 100	> 100	> 100	> 100	> 100	–	> 100	> 100	> 100
